Assay results: patent publication US20250282799A1, “SUBSTITUTED PYRIDO[4,3-d]PYRIMIDINES AS KRAS MODULATORS” (Alterome Therapeutics, Inc., priority 2023, published 2025)

System: KRAS G12V dependent lung adenocarcinoma cell line, NCI-H441
Experiment: Cellular pERK (Thr202/Tyr204) FRET/HTRF assay
Type: cell-based
Conditions: Homo sapiens, NCI-H441, pERK HTRF, NCI-H441 cells (KRAS G12V)
Summary of the method: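 NCI-H441 cells (KRAS G12V) plated overnight at 37 °C, then exposed to compounds for 1 hr at 37 °C, 5% CO2; DMSO as negative control. Lysates read by Eu-cryptate/d2 sandwich FRET (665 nm) for ERK1/2 phosphorylated at Thr202/Tyr204; IC50 from curve fit.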

[2H]C([2H])(Oc1nc(N2CCCC[C@H]3[C@H](F)[C@H]32)c2cnc(-c3cc(N)cc4cc(F)c(F)c(C#C)c34)c(F)c2n1)[C@@]12CCCN1C[C@H](F)C2 [Example 16, 5-Ethynyl-6,7-difluoro-4-(8-fluoro-4-((1S,7R,8S)-8-fluoro-2-azabicyclo[5.1.0]octan-2-yl)-2-(((2R,7aS)-2-fluorotetrahydro-1H-pyrrolizin-7a(5H)-yl)methoxy-d2)pyrido[4,3-d]pyrimidin-7-yl)naphthalen-2-amine]
IC50: < 50 nM

[2H]C([2H])(Oc1nc(N2CCOC[C@H]3[C@H](F)[C@H]32)c2cnc(-c3cc(N)cc4cc(F)c(F)c(C#C)c34)c(F)c2n1)[C@@]12CCCN1C[C@H](F)C2 [Example 28, 5-Ethynyl-6,7-difluoro-4-(8-fluoro-4-((1S,7S,8S)-8-fluoro-5-oxa-2-azabicyclo[5.1.0]octan-2-yl)-2-(((2R,7aS)-2-fluorotetrahydro-1H-pyrrolizin-7a(5H)-yl)methoxy-d2)pyrido[4,3-d]pyrimidin-7-yl)naphthalen-2-amine]
IC50: < 50 nM

[2H]C([2H])(Oc1nc(N2CCCC[C@H]3[C@H](F)[C@H]32)c2cnc(-c3cc(N)cc4ccc(F)c(C#C)c34)c(F)c2n1)[C@@]12CCCN1C[C@H](F)C2 [Example 82, 5-Ethynyl-6-fluoro-4-(8-fluoro-4-((1S,7R,8S)-8-fluoro-2-azabicyclo[5.1.0]octan-2-yl)-2-(((2R,7aS)-2-fluorotetrahydro-1H-pyrrolizin-7a(5H)-yl)methoxy-d2)pyrido[4,3-d]pyrimidin-7-yl)naphthalen-2-amine]
IC50: < 50 nM

[2H]C([2H])(Oc1nc(N2CCOC[C@H]3[C@H](F)[C@H]32)c2cnc(-c3cc(N)cc4ccc(F)c(C#C)c34)c(F)c2n1)[C@@]12CCCN1C[C@H](F)C2 [Example 87, 5-Ethynyl-6-fluoro-4-(8-fluoro-4-((1S,7S,8S)-8-fluoro-5-oxa-2-azabicyclo[5.1.0]octan-2-yl)-2-(((2R,7aS)-2-fluorotetrahydro-1H-pyrrolizin-7a(5H)-yl)methoxy-d2)pyrido[4,3-d]pyrimidin-7-yl)naphthalen-2-amine]
IC50: < 50 nM
